From patent US12264173B2 (GILEAD SCIENCES, INC., priority 2020, dated 2025)
Like-named read-outs stand apart in the source and are kept apart here.

Columns and labels:
Type in all cases: cell-based
RSV A2 = assay: RSV NHBE EC50 (RSV A2 antiviral assay in NHBE cells); conditions: read-out: RSV NHBE EC50
In short: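 Antiviral protection in primary bronchial epithelial cells: RSV A2 (1×10^4.5 tissue culture infectious doses/mL) added right after compound, in 3-fold dilutions at 0.05% DMSO, to 7,500 attached cells per well. Cytopathic loss quantified as CellTiter-Glo luminescence after 4-day incubation at 37 °C.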

RSV strain A2 = assay: microbe, parasite or virus in culture; conditions: Table 3, HEp-2 cells, RSV A2, 4 days, read-out: RSV HEp-2 EC50
In short: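 Cytopathic-effect protection assay: HEp-2 cells (50,000/mL) infected with pre-titered RSV A2 onto 3-fold serial compound dilutions, incubated 4 days at 37° C. Cell viability read by CellTiter-Glo luminescence; percent inhibition derived against 0% and 100% virus-inhibition controls.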

DENV2 replicon = assay: DENV-2 Huh-7 Rep EC50 (replicon luminescence)
In short: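 EC50 derived from luminescence dose-response, normalised to DMSO-only 0% inhibition wells, after 1.5 h with EnduRen substrate. Compounds were first exposed for 48 h at 37° C to DENV2 replicon Huh-7 cells (5,000/well).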

[1] = human respiratory syncytial virus, NHBE, 96 h, Table 3, NHBE cells, RSV A2, 4 days
[2] = human respiratory syncytial virus, NHBE, Table 5 comparative activity, 2',3'-OH vs -OC(O)iPr
[3] = human respiratory syncytial virus, HEp-2, 96 h
[4] = Dengue virus, DENV2, Huh-7, 48 h, read-out: DENV-2 REP Huh7 EC50
[5] = Table 3, NHBE cells, RSV A2, 4 days
[6] = Table 3, Huh-7 DENV2 replicon cells, 48 hours, read-out: DENV-2 REP Huh7 EC50

SMILES	EC50 (RSV A2; [1]) [µM]	EC50 (RSV A2; [2]) [µM]	EC50 (RSV strain A2; [3]) [µM]	EC50 (DENV2 replicon; [4]) [µM]	EC50 (DENV2 replicon; Dengue virus, DENV2, Huh-7, read-out: DENV Rep EC50) [µM]	EC50 (RSV A2; [5]) [µM]	EC50 (RSV strain A2) [µM]	EC50 (DENV2 replicon; [6]) [µM]
COC(=O)[C@H](C)N[P@](=O)(OC[C@@]1(C#N)O[C@@H](c2ccc3c(N)ncnn23)[C@H](OC(=O)C(C)C)[C@@H]1OC(=O)C(C)C)Oc1ccccc1 (single isomer, unassigned) [Example 140]	0.014	0.014	0.042	5.27				
CCC(=O)O[C@H]1[C@H](c2ccc3c(N)ncnn23)O[C@](C#N)(CO[P@@](=O)(N[C@@H](C)C(=O)OC)Oc2ccccc2)[C@H]1OC(=O)CC (single isomer, unassigned) [Example 143]	0.018		0.092	5.57				
CCOC(=O)[C@H](C)N[P@](=O)(OC[C@@]1(C#N)O[C@@H](c2ccc3c(N)ncnn23)[C@H](OC(=O)C(C)C)[C@@H]1OC(=O)C(C)C)Oc1ccccc1 (single isomer, unassigned) [Example 144]	0.022	0.022	0.034	6.17	6.17			
CC(C)C(=O)O[C@H]1[C@H](c2ccc3c(N)ncnn23)O[C@](C#N)(COP(=O)(N[C@@H](C)C(=O)OCC2CCOCC2)Oc2ccccc2)[C@H]1OC(=O)C(C)C (single isomer, unassigned) [Example 183]						0.05	0.069	3.65
CC(C)C(=O)O[C@H]1[C@H](c2ccc3c(N)ncnn23)O[C@](C#N)(COP(=O)(N[C@@H](C)C(=O)OC2COC2)Oc2ccccc2)[C@H]1OC(=O)C(C)C (single isomer, unassigned) [Example 186]						0.004	0.041	4.22
CC(C)C(=O)O[C@H]1[C@H](c2ccc3c(N)ncnn23)O[C@](C#N)(COP(=O)(N[C@@H](C)C(=O)OCC2COC2)Oc2ccccc2)[C@H]1OC(=O)C(C)C (single isomer, unassigned) [Example 201]						0.014	0.092	7.69
CCC(CC)COC(=O)[C@H](C)N[P@](=O)(OC[C@@]1(C#N)O[C@@H](c2ccc3c(N)ncnn23)C(OC(=O)C(C)C)[C@@H]1OC(=O)C(C)C)Oc1ccccc1 (stereo in doubt) [Example 86, (2R,3S,4R,5S)-5-(4-aminopyrrolo[2,1-f][1,2,4]triazin-7-yl)-2-cyano-2-((((S)-(((S)-1-(2-ethylbutoxy)-1-oxopropan-2-yl)amino)(phenoxy)phosphoryl)oxy)methyl) tetrahydrofuran-3,4-diyl bis(2-methylpropanoate)]	0.024		0.1	8.95				
CC(C)C(=O)O[C@H]1[C@H](c2ccc3c(N)ncnn23)O[C@](C#N)(CO[P@@](=O)(N[C@@H](C)C(=O)OC2CCCCC2)Oc2ccccc2)[C@H]1OC(=O)C(C)C [Example 77, (2R,3S,4S,5S)-5-(4-aminopyrrolo[2,1-f][1,2,4]triazin-7-yl)-2-cyano-2-((((S)-(((S)-1-(cyclohexyloxy)-1-oxopropan-2-yl)amino)(phenoxy)phosphoryl)oxy)methyl) tetrahydrofuran-3,4-diyl bis(2-methylpropanoate)]	0.024		0.057	5.39				
CCC(=O)O[C@H]1[C@H](c2ccc3c(N)ncnn23)O[C@](C#N)(CO[P@@](=O)(N[C@@H](C)C(=O)OC2CCCCC2)Oc2ccccc2)[C@H]1OC(=O)CC [Example 82, (2R,3S,4S,5S)-5-(4-aminopyrrolo[2,1-f][1,2,4]triazin-7-yl)-2-cyano-2-((((S)-(((S)-1-(cyclohexyloxy)-1-oxopropan-2-yl)amino)(phenoxy)phosphoryl)oxy)methyl) tetrahydrofuran-3,4-diyl dipropionate]	0.032		0.058	7.63				
CCC(=O)O[C@H]1[C@H](c2ccc3c(N)ncnn23)O[C@](C#N)(CO[P@@](=O)(N[C@@H](C)C(=O)OC(C)C)Oc2ccccc2)[C@H]1OC(=O)CC [Example 90, (2R,3S,4S,5S)-5-(4-Aminopyrrolo[2,1-f][1,2,4]triazin-7-yl)-2-cyano-2-((((S)-(((S)-1-isopropoxy-1-oxopropan-2-yl)amino)(phenoxy)phosphoryl)oxy)methyl) tetrahydrofuran-3,4-diyl dipropionate]	0.045		0.109	24.3				
CCC(=O)O[C@H]1[C@H](c2ccc3c(N)ncnn23)O[C@](C#N)(CO[P@@](=O)(N[C@@H](C)C(=O)OCC2CC2)Oc2ccccc2)[C@H]1OC(=O)CC [Example 99]						0.014	0.058	6.31
COC(=O)[C@H](C)N[P@](=O)(OC[C@@]1(C#N)O[C@@H](c2ccc3c(=N)n(COP(=O)(O)O)cnn23)[C@H](OC(=O)C(C)C)[C@@H]1OC(=O)C(C)C)Oc1ccccc1 [Example 259, (2R,3S,4S,5S)-2-cyano-5-(4-imino-3-((phosphonooxy)methyl)-3,4-dihydropyrrolo[2,1-f][1,2,4]triazin-7-yl)-2-((((S)-(((S)-1-methoxy-1-oxopropan-2-yl)amino)(phenoxy)phosphoryl)oxy)methyl)tetrahydrofuran-3,4-diyl bis(2-methylpropanoate)]	0.011		0.036	5.36				
